Test results published in patent publication US20260184807A1, “Methods for Treating Rheumatoid Arthritis Using a Syndecan-1 Inhibitor or Syntenin-1 Inhibitor” (The United States Government as represented by the …, priority 2022, published 2026).

Experiments:
MΦs = conditions: classical and Syntenin-1-differentiated MΦs; cited from earlier work
RA FLS [1] = conditions: cited from earlier work
RA FLS [2] = conditions: IL-6/IFNγ signaling; cited from earlier work
RA MΦs = test: Syntenin-1 stimulation and inhibition in RA MΦs (qRT-PCR, ELISA); assay type: cell-based, human; conditions: Syntenin-1 1000 ng/mL, 6 h or 24 h vs PBS, FIGS. 2B-2E
Procedure: FIGS. 2A-K show ligation of Syntenin-1 to SDC-1 expands RA MΦ inflammatory profile independent of IL 5R or PDZ1 function. […] Transcription of IRFs (FIG. 2B) and the inflammatory monokines (FIG. 2C) was assessed by qRT-PCR (n=3-10), and protein levels of IL-6 (FIG. 2D) or TNFα (FIG. 2E) were determined in the conditioned media by ELISA (n=10). […] Data are presented as mean±SEM: significant differences were determined by the Mann-Whitney test, two-way-ANOVA, or one-way ANOVA. *p<0.05, **p<0.01, ***p<0.001, ****p<0.0001. ANOVA, analysis of variance.
(B, C) RA MΦs were treated with PBS (ctrl) or Syntenin-1 (1000 ng/mL) for 6 hours and transcription levels of HIF1α (n=10) (FIG. 3B). GLUT1, RAPTOR, HK2, PFK2, PDK1, PKM2 (FIG. 3C) were quantified by qRT-PCR (n=6). […] FIGS. 3H, 3I) after 24 hours impact of treatment was determined on CD14+CD86+ GLUT1+ frequency by flow cytometry (n=4-5). […] Data are presented as mean±SEM; significant differences were determined by Mann-Whitney test, Student's t-test, two-way-ANOVA, or one-way ANOVA. *p<0.05, **p<0.01, ***p<0.001, ****p<0.0001. ANOVA, analysis of variance.
Quantitative Real-Time PCR. […] Transcription to cDNA and subsequent quantitative real-time PCR analysis was performed using the High-Capacity cDNA Reverse Transcription Kit (Applied Biosystems) and TaqMan Gene Expression Master Mix (Applied Biosystems). […]

O=CC[C@@H](O)[C@H](O)[C@H](O)CO [2-DG, 2-deoxy-D-glucose]
metabolic activity expanded via GLUT1, LDHA, and lactate (MΦs): impaired
GLUT1 and HK2 transcriptional upregulation (RA FLS [1]; LPS/IFNγ reprogrammed RA FLS): suppressed
upregulation of IRF1/5/7 along with IL-6, IL-8, and CCL2 (RA FLS [1]; RA FLS differentiated by LPS/IFNγ): reversed
citrate accumulation (RA FLS [1]; RA FLS reconfigured by LPS/IFNγ): resolved

C[C@@H]1CCN(C(=O)CC#N)C[C@@H]1N(C)c1ncnc2[nH]ccc12 [Tofacitinib]
RA FLS migration (RA FLS [2]): impaired

B1: Syntenin-1: Syntenin-1 protein (1000 ng/ml, NKMAX Co.) used as stimulus (protein, UniProt O00560 2-298, looked up)
Syntenin-1: SLYPSLEDLKVDKVIQAQTAFSANPANPAILSEASAPIPHDGNLYPRLYPELSQYMGLSLNEEEIRANVAVVSGAPLQGQLVARPSSINYMVAPVTGNDVGIRRAEIKQGIREVILCKDQDGKIGLRLKSIDNGIFVQLVQANSPASLVGLRFGDQVLQINGENCAGWSSDKAHKVLKQAFGEKITMTIRDRPFERTITMHKDSTGHVGFIFKNGKITSIVKDSSAARNGLLTEHNICEINGQNVIGLKDSQIADILSTSGTVVTITIMPAFIFEHIIKRMAPSIMKSLMDHTIPEV
expansion of monokines IL-1, TNF-α, IL-6, IL-8 and CCL2 (RA MΦs): > 7 fold
